In patent EP1000039B1 (Wyeth Holdings Corporation, priority 1997, dated 1999):
Converted amounts (≈) assume the structure as drawn. Read-outs that look alike come from different tables or passages of the source.

Legend:
LOX = assay: Inhibition of Cancer Cell Growth (Sulforhodamine B); assay type: cell-based, Human; details: 48 hours exposure; for IC50: Homo sapiens, read-out: Inhibition of Cancer Cell Growth as Measured by Cell Number (IC50) LOX
Protocol: (§1) After 48 hours exposure to test compounds, cells were fixed with trichloroacetic acid, and stained with Sulforhodamine B. After washing with trichloroacetic acid, bound dye was solubilized in 10 mM Tris base and optical density was determined using plate reader. Under conditions of the assay the optical density is proportional to the number of cells in the well. […] The test procedure is described in details by Philip Skehan et. al. J.Natl. Canc. […]

MCF7 = assay: as above; assay type: cell-based, Human; details: 48 hours exposure; for IC50: Homo sapiens, read-out: Inhibition of Cancer Cell Growth as Measured by Cell Number (IC50) MCF7
Protocol: as §1

A431 = assay: as above; assay type: cell-based, Human; details: for IC50: Homo sapiens, A-431, 48 hours exposure, read-out: Inhibition of Cancer Cell Growth as Measured by Cell Number (IC50) A431; for Inhibition of Cancer Cell Growth as Measured by Cell Number (IC50) A431: 48 hours exposure
Protocol: as §1

SKBR3 = assay: as above; assay type: cell-based, Human; details: for IC50: Homo sapiens, SK-BR-3, 48 hours exposure, read-out: Inhibition of Cancer Cell Growth as Measured by Cell Number (IC50) SKBR3; for Inhibition of Cancer Cell Growth as Measured by Cell Number (IC50) SKBR3: 48 hours exposure
Protocol: as §1

MB435 = assay: as above; assay type: cell-based, Human; details: 48 hours exposure; for IC50: Homo sapiens, read-out: Inhibition of Cancer Cell Growth as Measured by Cell Number (IC50) MB435
Protocol: as §1

A2780DDP = assay: as above; assay type: cell-based, Human; details: 48 hours exposure; for IC50: Homo sapiens, read-out: Inhibition of Cancer Cell Growth as Measured by Cell Number (IC50) A2780DDP
Protocol: as §1

A2780S = assay: as above; assay type: cell-based, Human; details: 48 hours exposure; for IC50: Homo sapiens, read-out: Inhibition of Cancer Cell Growth as Measured by Cell Number (IC50) A2780S
Protocol: as §1

SW620 = assay: as above; assay type: cell-based, Human; details: for IC50: Homo sapiens, SW-620, 48 hours exposure, read-out: Inhibition of Cancer Cell Growth as Measured by Cell Number (IC50) SW620; for Inhibition of Cancer Cell Growth as Measured by Cell Number (IC50) SW620: 48 hours exposure
Protocol: as §1

[1] = target: T1, His-tagged cytoplasmic domain of EGFR (Homo sapiens, UniProt P00533); assay: Inhibition of Epidermal Growth Factor Receptor Kinase (EGF-R) using recombinant enzyme, RR-SRC peptide phosphorylation; assay type: biochemical
T1 construct: containing the EGFR cDNA encoding amino acids 645 - 1186 preceded by Met-Ala-(His)6; Met-Ala-(His)6 (N); made in house; host or cells: Sf9 insect cells, recombinant baculovirus vHcEGFR52
Protocol: The enzyme used in this assay is the His-tagged cytoplasmic domain of EGFR. […] Sf9 cells in 100 mm plates were infected at an moi of 10 pfu/cell and cells were harvested 48 h post infection. A cytoplasmic extract was prepared using 1% Triton X-100 and applied to Ni-NTA column. After washing the column with 20 mM imidazole, HcEGFR was eluted with 250 mM imidazole (in 50 mM Na2HPO4, pH 8.0, 300 mM NaCl). Fractions collected were dialyzed against 10 mM HEPES, pH 7.0, 50 mM NaCl, 10% glycerol, 1ug/mL antipain and leupeptin and 0. 1 mM Pefabloc SC. The protein was frozen in dry ice/methanol and stored -70°C.
For the enzyme reaction, 10 uL of each inhibitor (at various concentrations) were added to each well of a 96-well plate. To this was added 3 uL of enzyme (1: 10 dilution in 10mM HEPES, pH 7.4 for final conc. of 1:120). This was allowed to sit for 10 min on ice and was followed by the addition of 5 ul peptide (80 uM final conc.), 10ul of 4X Buffer (Table A), 0.25 uL ^33P-ATP and 12 uL H2O. The reaction was allowed to run for 90 min at room temperature and was followed by spotting the entire volume on to precut P81 filter papers. The filter discs were washed 2X with 0.5% phosphoric acid and radioactivity was measured using a liquid scintillation counter.

[2] = recombinant enzyme, average of the number of tests, read-out: IC50

T1 sequence (P00533 669-1210): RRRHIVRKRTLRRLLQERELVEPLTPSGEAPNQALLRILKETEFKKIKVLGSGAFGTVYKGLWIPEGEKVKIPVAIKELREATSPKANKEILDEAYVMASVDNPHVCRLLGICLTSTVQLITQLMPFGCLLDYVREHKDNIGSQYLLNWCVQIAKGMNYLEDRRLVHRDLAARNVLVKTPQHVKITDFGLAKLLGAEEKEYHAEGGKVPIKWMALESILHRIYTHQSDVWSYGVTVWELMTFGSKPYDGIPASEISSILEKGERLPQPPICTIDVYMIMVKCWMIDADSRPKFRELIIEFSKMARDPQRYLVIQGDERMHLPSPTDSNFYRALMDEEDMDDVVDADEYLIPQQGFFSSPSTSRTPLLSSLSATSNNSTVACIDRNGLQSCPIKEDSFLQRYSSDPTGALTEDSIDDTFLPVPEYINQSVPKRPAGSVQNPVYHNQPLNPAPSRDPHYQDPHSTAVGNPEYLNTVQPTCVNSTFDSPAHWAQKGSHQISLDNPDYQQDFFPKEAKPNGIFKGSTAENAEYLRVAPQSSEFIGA

Molecule | IC50 (LOX) [µg/mL] | IC50 (MCF7) [µg/mL] | IC50 (A431) [µg/mL] | IC50 (SKBR3) [µg/mL] | IC50 (MB435) [µg/mL] | IC50 (A2780DDP) [µg/mL] | IC50 (A2780S) [µg/mL] | IC50 (SW620) [µg/mL] | IC50 [1, 2] [nM] | Inhibition of Cancer Cell Growth as Measured by Cell Number (IC50) LOX (LOX) [µg/mL] | Inhibition of Cancer Cell Growth as Measured by Cell Number (IC50) MCF7 (MCF7) [µg/mL] | Inhibition of Cancer Cell Growth as Measured by Cell Number (IC50) A431 (A431) [µg/mL] | Inhibition of Cancer Cell Growth as Measured by Cell Number (IC50) SKBR3 (SKBR3) [µg/mL] | Inhibition of Cancer Cell Growth as Measured by Cell Number (IC50) MB435 (MB435) [µg/mL] | Inhibition of Cancer Cell Growth as Measured by Cell Number (IC50) A2780DDP (A2780DDP) [µg/mL] | Inhibition of Cancer Cell Growth as Measured by Cell Number (IC50) A2780S (A2780S) [µg/mL] | Inhibition of Cancer Cell Growth as Measured by Cell Number (IC50) SW620 (SW620) [µg/mL] | IC50 [1] [nM]
CC#CC(=O)Nc1ccc2ncnc(Nc3cccc(N(C)C)c3)c2c1 [Example 61, But-2-ynoic acid [4-(3-dimethylamino-phenylamino)-quinazolin-6-yl]-amide] | 0.5 (≈ 1.45 µM) | 3.62 (≈ 10.5 µM) | 0.73 (≈ 2.11 µM) | 0.04 (≈ 0.116 µM) | 4.35 (≈ 12.6 µM) | 1.39 (≈ 4.02 µM) | 1.86 (≈ 5.38 µM) | 0.43 (≈ 1.24 µM) | 80 |  |  |  |  |  |  |  |  | 
COCCOCC#CC(=O)Nc1ccc2ncnc(Nc3cccc(Br)c3)c2c1 [Example 55, 4-(2-Methoxy-ethoxy)-but-2-ynoic acid [4-(3-bromo-phenylamino)-quinazolin-6-yl]-amide] | 0.2 (≈ 0.439 µM) | 5 (≈ 11 µM) | 0.4 (≈ 0.879 µM) | 0.3 (≈ 0.659 µM) | 2.8 (≈ 6.15 µM) | 0.5 (≈ 1.1 µM) | 0.02 (≈ 0.0439 µM) | 0.1 (≈ 0.22 µM) | 2 |  |  |  |  |  |  |  |  | 
COCCN(C)CC#CC(=O)Nc1ccc2ncnc(Nc3cccc(Br)c3)c2c1 [Example 37] |  |  |  |  |  |  |  |  | 4.5 |  |  |  |  |  |  |  |  | 
O=C(C=CCBr)Nc1ccc2ncnc(Nc3cccc(Br)c3)c2c1 [Example 65, 4-Bromo-but-2-enoic acid [4-(3-bromo-phenylamino)-quinazolin-6-yl]-amide] | 5.3 (≈ 11.5 µM) | 42 (≈ 90.9 µM) | 3.2 (≈ 6.92 µM) | 0.3 (≈ 0.649 µM) | 13 (≈ 28.1 µM) | 6.5 (≈ 14.1 µM) | 5.2 (≈ 11.3 µM) | 8.1 (≈ 17.5 µM) |  |  |  |  |  |  |  |  |  | 
O=c1c(Nc2ccc3ncnc(Nc4cccc(Br)c4)c3c2)c(N2CCOCC2)c1=O [Example 52, 3-[4-(3-Bromo-phenylamino)-quinazolin-6-ylamino]-4-morpholin-4-yl-cyclobut-3-ene-1,2-dione] | 7.6 (≈ 15.8 µM) | 53.1 (≈ 111 µM) | 8.42 (≈ 17.5 µM) | 38 (≈ 79.1 µM) | 26.8 (≈ 55.8 µM) | 41.1 (≈ 85.7 µM) | 27 (≈ 56.3 µM) | > 100 |  |  |  |  |  |  |  |  |  | 
C=CS(=O)(=O)Nc1ccc2ncnc(Nc3cccc(Br)c3)c2c1 [Example 82, Ethenesulfonic acid[4-(3-bromo-phenylamino)-quinazolin-6-yl]-amide] | 0.382 (≈ 0.943 µM) | 0.81 (≈ 2 µM) | 0.025 (≈ 0.0617 µM) | 0.269 (≈ 0.664 µM) |  | 0.112 (≈ 0.276 µM) | 0.0626 (≈ 0.154 µM) | 0.53 (≈ 1.31 µM) |  |  |  |  |  |  |  |  |  | 
CN1CCN(CC#CC(=O)Nc2ccc3ncnc(Nc4cccc(Br)c4)c3c2)CC1 [Example 34, 4-(4-Methyl-piperazin-1-yl]-but-2-ynoic acid [4-(3-bromophenylamino)-quinazolin-6-yl]-amide] |  |  |  |  |  |  |  |  | 35 |  |  |  |  |  |  |  |  | 
COCCN(CC#CC(=O)Nc1ccc2ncnc(Nc3cccc(Br)c3)c2c1)CCOC [Example 31, 4-[Bis-(2-methoxy-methyl]-amino]-but-2-ynoic acid [4-(3-bromophenylamino)-quinazolin-6-yl]-amide] | 0.5 (≈ 0.976 µM) |  | 0.01 (≈ 0.0195 µM) | < 0.01 | 0.7 (≈ 1.37 µM) | 0.6 (≈ 1.17 µM) | 0.2 (≈ 0.39 µM) | 0.4 (≈ 0.781 µM) | 2 |  |  |  |  |  |  |  |  | 
N-[4-(3-Bromo-phenylamino)-quinazolin-6-yl]-2-morpholin-4-ylmethyl-acrylamide [Example 63] |  |  |  |  |  |  |  |  |  | 3.9 | 17 | 0.6 | <0.01 | 4.5 | 4.0 | 0.8 | 5.5 | 
O=C(Nc1ccc2ncnc(Nc3cccc(Br)c3)c2c1)C1CO1 (centres unmarked) [Example 81, Oxirane-2-carboxylic acid [4-(3-bromo-phenylamino)-quinazolin-6-yl]-amide] | 0.386 (≈ 1 µM) | 1.03 (≈ 2.67 µM) | 0.34 (≈ 0.883 µM) | 0.306 (≈ 0.794 µM) |  | 0.311 (≈ 0.807 µM) | 0.257 (≈ 0.667 µM) | 0.584 (≈ 1.52 µM) | 0.7 |  |  |  |  |  |  |  |  | 
O=C(/C=C/Cl)Nc1ccc2ncnc(Nc3cccc(Br)c3)c2c1 [Example 47, N-[4-[(3-Bromophenyl)amino]-6-quinazolinyl]-3(E)-chloro-2-propenamide] | 0.0772 (≈ 0.191 µM) | 1.17 (≈ 2.9 µM) | 0.023 (≈ 0.057 µM) | 0.496 (≈ 1.23 µM) |  | 0.197 (≈ 0.488 µM) | 0.01 (≈ 0.0248 µM) | 0.39 (≈ 0.966 µM) | 0.3 |  |  |  |  |  |  |  |  | 
CN1CCC=C(C(=O)Nc2ccc3ncnc(Nc4cccc(Br)c4)c3c2)C1 [Example 53] | 5.62 (≈ 12.8 µM) | 5.09 (≈ 11.6 µM) | 0.44 (≈ 1 µM) |  | 4.31 (≈ 9.83 µM) | 4.73 (≈ 10.8 µM) | 2.89 (≈ 6.59 µM) |  |  |  |  |  |  |  |  |  |  | 60
4-Diethylamino-but-2-enoic acid [4-(3-bromo-phenylamino)-quinazolin-6-yl]-amide [Example 67] |  |  |  |  |  |  |  |  |  | 46 | 59 | 0.01 | <0.01 | 45 | 43 | 22 | 52 | 
CN(C)CC=CC(=O)Nc1ccc2ncnc(Nc3cccc(Br)c3)c2c1 [Example 66, 4-Dimethylamino-but-2-enoic acid [4-(3-bromo-phenylamino)-quinazolin-6-yl]-amide] | 4.9 (≈ 11.5 µM) | 7.6 (≈ 17.8 µM) | 0.007 (≈ 0.0164 µM) | < 0.01 | 5.4 (≈ 12.7 µM) | 5.1 (≈ 12 µM) | 3.9 (≈ 9.15 µM) | 5.1 (≈ 12 µM) |  |  |  |  |  |  |  |  |  | 
CSSC(C)C(=O)Nc1ccc2ncnc(Nc3cccc(Br)c3)c2c1 (centres unmarked) [Example 73, N-[4-(3-Bromo-phenylamino)-quinazolin-6-yl]-2-methyldisulfanyl-propionamide] | 3.1 (≈ 6.9 µM) | 5.04 (≈ 11.2 µM) | 1.07 (≈ 2.38 µM) |  |  | 3 (≈ 6.68 µM) | 1.77 (≈ 3.94 µM) | 3.65 (≈ 8.12 µM) |  |  |  |  |  |  |  |  |  | 
